Converted amounts (≈) assume the structure as drawn.
Tests used:
Assay in all cases: ≥ marks a high value that may be exact or a test limit, other limits are often not marked, values filed in µg/mL are converted to µM
[1] = test system: Mannheimia haemolytica Serovar 1
Bibersteinia trehalosi = test system: Bibersteinia trehalosi
[2] = test system: Mannheimia haemolytica Serovar 2
[3] = test system: Salmonella enterica subsp. arizonae
[4] = test system: Pseudomonas aeruginosa PAO1
Klebsiella pneumoniae = test system: Klebsiella pneumoniae
Staphylococcus aureus = test system: Staphylococcus aureus
Pasteurella multocida = test system: Pasteurella multocida
Aspergillus fumigatus = test system: Aspergillus fumigatus
[5] = test system: Corynebacterium pseudotuberculosis ATCC 19410
[6] = test system: Mannheimia haemolytica Serovar 6
[7] = test system: Escherichia coli ATCC 25922
[8] = test system: Candida albicans ATCC 90028
[9] = test system: Cryptococcus neoformans B3501
[10] = test system: Staphylococcus aureus ATCC 25923
[11] = test system: Pseudomonas aeruginosa ATCC 27853
[12] = test system: Klebsiella pneumoniae ATCC 13833
[13] = test system: Staphylococcus aureus 209P
Escherichia coli C600 = test system: Escherichia coli C600

SMILES	MIC [1] [µM]	MIC (Bibersteinia trehalosi) [µM]	MIC [2] [µM]	MIC [3] [µM]	MIC [4] [µM]	MIC (Klebsiella pneumoniae) [µM]	MIC (Staphylococcus aureus) [µM]	MIC (Pasteurella multocida) [µM]	MIC (Aspergillus fumigatus) [µM]	MIC [5] [µM]	MIC [6] [µM]	MIC [7] [µM]	MIC [8] [µM]	MIC [9] [µM]	MIC [10] [µM]	MIC [11] [µM]	MIC [12] [µM]	MIC [13] [µM]	MIC (Escherichia coli C600) [µM]
CC[C@H](C)[C@H](NC(=O)[C@H](CCCN=C(N)N)NC(=O)[C@H](CCCN=C(N)N)NC(=O)[C@H](CC(C)C)NC(=O)[C@@H](N)CC(N)=O)C(=O)N[C@H](C(=O)N[C@@H](CCCN=C(N)N)C(=O)N[C@@H](CCCCN)C(=O)N[C@H](C(=O)N[C@H](C(=O)N[C@@H](Cc1cnc[nH]1)C(=O)N[C@H](C(=O)N[C@H](C(=O)N[C@@H](CCCCN)C(=O)N[C@@H](CCCCN)C(=O)N[C@@H](Cc1ccc(O)cc1)C(=O)O)[C@@H](C)CC)[C@@H](C)CC)[C@@H](C)CC)[C@@H](C)CC)[C@@H](C)CC [NLRRIIRKIIHIIKKY]	0.626 (≈ 1.3 µg/mL)	1.01 (≈ 2.1 µg/mL)	2.41 (≈ 5 µg/mL)	2.41 (≈ 5 µg/mL)	1.2 (≈ 2.5 µg/mL)	0.626 (≈ 1.3 µg/mL)	4.81 (≈ 10 µg/mL)	1.01 (≈ 2.1 µg/mL)	6.4 (≈ 13.3 µg/mL)	9.63 (≈ 20 µg/mL)	1.2 (≈ 2.5 µg/mL)								
CC[C@H](C)[C@H](NC(=O)[C@H](Cc1cnc[nH]1)NC(=O)[C@H](C)NC(=O)[C@H](Cc1ccc(O)cc1)NC(=O)[C@@H](NC(=O)[C@H](CCCN=C(N)N)NC(=O)[C@H](Cc1ccccc1)NC(=O)[C@H](CC(C)C)NC(=O)[C@H](CCCN=C(N)N)NC(=O)[C@H](CCCCN)NC(=O)[C@H](CC(C)C)NC(=O)[C@@H](NC(=O)[C@@H](NC(=O)[C@H](CCCCN)NC(=O)[C@H](C)NC(=O)[C@@H](NC(=O)[C@H](CO)NC(=O)[C@H](CCSC)NC(=O)[C@@H](N)Cc1ccccc1)C(C)C)[C@@H](C)O)[C@@H](C)CC)C(C)C)C(=O)N[C@@H](Cc1ccc(O)cc1)C(N)=O [FMSVAKTILKRLFRVYAHIY]												4 (≈ 9.82 µg/mL)	8 (≈ 19.6 µg/mL)	2 (≈ 4.91 µg/mL)	4 (≈ 9.82 µg/mL)	8 (≈ 19.6 µg/mL)	4 (≈ 9.82 µg/mL)		
CC[C@H](C)[C@H](NC(=O)[C@H](Cc1cnc[nH]1)NC(=O)[C@@H](NC(=O)[C@@H](NC(=O)[C@H](CCCCN)NC(=O)[C@H](CCCN=C(N)N)NC(=O)[C@@H](NC(=O)[C@@H](NC(=O)[C@H](CCCN=C(N)N)NC(=O)[C@@H](N)CCCN=C(N)N)[C@@H](C)CC)[C@@H](C)CC)[C@@H](C)CC)[C@@H](C)CC)C(=O)N[C@H](C(=O)N[C@@H](CCCCN)C(N)=O)[C@@H](C)CC [RRIIRKIIHIIK]	12.8 (≈ 20 µg/mL)	12.8 (≈ 20 µg/mL)	6.67 (≈ 10.4 µg/mL)	12.8 (≈ 20 µg/mL)	1.09 (≈ 1.7 µg/mL)	> 12.8	> 12.8	12.8 (≈ 20 µg/mL)	17.1 (≈ 26.7 µg/mL)	12.8 (≈ 20 µg/mL)	4.3 (≈ 6.7 µg/mL)								
CC[C@H](C)[C@@H]1NC(=O)CNC(=O)[C@H](CCCN=C(N)N)NC(=O)[C@H](CO)NC(=O)[C@@H]2CSSC[C@H](NC1=O)C(=O)N[C@@H](Cc1ccc(O)cc1)C(=O)N[C@@H](CCCN=C(N)N)C(=O)N[C@@H](CCCN=C(N)N)C(=O)N[C@H](C(=O)N[C@@H](CCCN=C(N)N)C(=O)O)CSSC[C@H](NC(=O)[C@H](Cc1c[nH]c3ccccc13)NC(=O)[C@@H](N)CCCCN)C(=O)N[C@@H](Cc1ccccc1)C(=O)N[C@@H](CCCN=C(N)N)C(=O)N[C@@H](C(C)C)C(=O)N2 [KWCFRVCSRGICYRRCR]					3.13 (≈ 6.85 µg/mL)													3.13 (≈ 6.85 µg/mL)	0.8 (≈ 1.75 µg/mL)
CC[C@H](C)[C@H](NC(=O)[C@H](CCCN=C(N)N)NC(=O)[C@H](CC(N)=O)NC(=O)[C@H](Cc1ccccc1)NC(=O)[C@H](CC(C)C)NC(=O)CNC(=O)[C@H](CCSC)NC(=O)[C@@H](N)CC(C)C)C(=O)N[C@H](C(=O)N[C@@H](CCCN=C(N)N)C(=O)N[C@@H](CCCCN)C(=O)N[C@H](C(=O)N[C@H](C(=O)N[C@@H](CCCCN)C(=O)N[C@@H](CC(C)C)C(=O)N[C@@H](Cc1ccccc1)C(=O)N[C@@H](CC(N)=O)C(N)=O)C(C)C)C(C)C)[C@@H](C)CC [LMGLFNRIIRKVVKLFN]												8 (≈ 16.5 µg/mL)	16 (≈ 33 µg/mL)	4 (≈ 8.24 µg/mL)	8 (≈ 16.5 µg/mL)	16 (≈ 33 µg/mL)	8 (≈ 16.5 µg/mL)		

Source: DBAASP
